Active and inactive are the calls of the source.
How the values were obtained:
[1] = T. cruzi growth inhibition in host cells, dose response, cell-based, plate reader, dry powder, set 2 (AID 652275); type: functional
[2] = viability loss in HeLa cells – cytotoxicity control for MgcRacGAP inhibitor project, dose response (AID 624300); type: functional
[3] = target: T1, Rac GTPase-activating protein 1 (Homo sapiens, UniProt Q9H0H5); test: blockers of MgcRacGAP-driven Rac1 GTP hydrolysis – biochemical, ADP Hunter fluorescence, primary and confirmatory, confirmation (AID 624330); type: functional
T1 sequence (Q9H0H5 whole entry): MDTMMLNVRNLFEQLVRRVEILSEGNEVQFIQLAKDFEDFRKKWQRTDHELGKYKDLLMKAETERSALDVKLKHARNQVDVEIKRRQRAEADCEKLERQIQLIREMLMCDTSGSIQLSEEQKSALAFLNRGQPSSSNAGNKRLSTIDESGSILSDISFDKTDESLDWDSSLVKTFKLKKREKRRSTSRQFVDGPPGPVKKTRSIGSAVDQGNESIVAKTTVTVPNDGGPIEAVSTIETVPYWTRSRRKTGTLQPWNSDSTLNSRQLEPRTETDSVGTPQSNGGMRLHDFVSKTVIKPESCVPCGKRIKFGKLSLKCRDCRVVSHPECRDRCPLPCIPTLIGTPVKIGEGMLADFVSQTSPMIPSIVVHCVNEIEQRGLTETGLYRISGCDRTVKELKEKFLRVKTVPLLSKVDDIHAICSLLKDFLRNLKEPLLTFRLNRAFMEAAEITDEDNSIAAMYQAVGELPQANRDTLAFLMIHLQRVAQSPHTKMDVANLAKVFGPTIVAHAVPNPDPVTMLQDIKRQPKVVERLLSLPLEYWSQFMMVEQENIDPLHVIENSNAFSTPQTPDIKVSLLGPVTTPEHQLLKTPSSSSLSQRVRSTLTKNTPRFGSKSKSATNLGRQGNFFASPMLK

[4] = blockers of HIV-1 envelope-mediated cell-cell fusion – cherry-pick, dose response (AID 652057); type: functional, cell-based
[5] = blockers of HIV-1 ZM109 envelope-driven cell-cell fusion – HeLa effector, CEM target cells, luciferase, cherry-pick, dose response (AID 652058); type: functional, cell-based;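 also: luciferase signal from HIV-1 Env mediated cell-cell fusion of effector and target cells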
[6] = off-target signal loss in HeLa-CEM21 co-culture – HeLa F-luc CTL cells, cherry-picked, counter-screen for HIV-1 Env fusion inhibitor project, dose response (AID 652040); type: functional, cell-based;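 also: potency for signal decrease marking cytotoxic or nonspecific inhibition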
[7] = HIV-1 AD8 envelope cell-cell fusion blockers – cherry-pick, dose response (AID 652062); type: functional, cell-based;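 also: luciferase signal from cell-cell fusion driven by HIV-1 clade B AD8 Env; potency is for inhibitors of fusion seen as a drop in luminescence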
[8] = cells
[9] = Luminescence Cell-Based Dose Confirmation HTS to Identify Activators of 5'UTR Stem-Loop Driven Alpha-Synuclein mRNA Translation in H4 Neuroglioblastoma Cells. [Related pubchem assays: 1829 (Project Summary), 1814 (Primary HTS)]; type: functional
[10] = Luminescence Cell-Based Dose Response HTS to Identify Activators of Luciferase Translation or Activity in H4 […] Cells. [Related pubchem assays: 1829 (Project Summary), 1814 (Primary HTS)]; type: functional
[11] = system: H4; test: Luminescence Cell-Based Dose Response HTS to Identify Activators of 5'UTR Stem-Loop Driven Prion Protein mRNA Translation in H4 Neuroglioblastoma Cells. [Related pubchem assays: 1829 (Project Summary), 1814 (Primary HTS)]; type: functional; settings: Homo sapiens
[12] = target: T2, Caspase-3 (Homo sapiens, UniProt P42574); type: functional;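 also: Dose-response selectivity test against caspase-3 for candidate inhibitors of sentrin-specific proteases (SENPs)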
T2 sequence (P42574 whole entry): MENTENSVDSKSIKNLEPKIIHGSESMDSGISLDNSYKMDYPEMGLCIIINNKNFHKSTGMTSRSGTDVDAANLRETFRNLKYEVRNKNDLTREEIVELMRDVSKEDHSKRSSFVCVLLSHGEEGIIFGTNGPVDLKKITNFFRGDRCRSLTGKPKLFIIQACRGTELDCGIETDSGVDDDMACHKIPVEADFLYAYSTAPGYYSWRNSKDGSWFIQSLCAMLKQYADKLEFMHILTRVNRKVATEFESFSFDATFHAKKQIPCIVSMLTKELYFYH

[13] = target: T3, Sentrin-specific protease 7 (Homo sapiens, UniProt Q9BQF6); type: functional;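 also: Luminescence-based dose-response confirmation of ultra-high-throughput screening hits, measuring inhibition of SENP7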
T3 sequence (Q9BQF6 whole entry): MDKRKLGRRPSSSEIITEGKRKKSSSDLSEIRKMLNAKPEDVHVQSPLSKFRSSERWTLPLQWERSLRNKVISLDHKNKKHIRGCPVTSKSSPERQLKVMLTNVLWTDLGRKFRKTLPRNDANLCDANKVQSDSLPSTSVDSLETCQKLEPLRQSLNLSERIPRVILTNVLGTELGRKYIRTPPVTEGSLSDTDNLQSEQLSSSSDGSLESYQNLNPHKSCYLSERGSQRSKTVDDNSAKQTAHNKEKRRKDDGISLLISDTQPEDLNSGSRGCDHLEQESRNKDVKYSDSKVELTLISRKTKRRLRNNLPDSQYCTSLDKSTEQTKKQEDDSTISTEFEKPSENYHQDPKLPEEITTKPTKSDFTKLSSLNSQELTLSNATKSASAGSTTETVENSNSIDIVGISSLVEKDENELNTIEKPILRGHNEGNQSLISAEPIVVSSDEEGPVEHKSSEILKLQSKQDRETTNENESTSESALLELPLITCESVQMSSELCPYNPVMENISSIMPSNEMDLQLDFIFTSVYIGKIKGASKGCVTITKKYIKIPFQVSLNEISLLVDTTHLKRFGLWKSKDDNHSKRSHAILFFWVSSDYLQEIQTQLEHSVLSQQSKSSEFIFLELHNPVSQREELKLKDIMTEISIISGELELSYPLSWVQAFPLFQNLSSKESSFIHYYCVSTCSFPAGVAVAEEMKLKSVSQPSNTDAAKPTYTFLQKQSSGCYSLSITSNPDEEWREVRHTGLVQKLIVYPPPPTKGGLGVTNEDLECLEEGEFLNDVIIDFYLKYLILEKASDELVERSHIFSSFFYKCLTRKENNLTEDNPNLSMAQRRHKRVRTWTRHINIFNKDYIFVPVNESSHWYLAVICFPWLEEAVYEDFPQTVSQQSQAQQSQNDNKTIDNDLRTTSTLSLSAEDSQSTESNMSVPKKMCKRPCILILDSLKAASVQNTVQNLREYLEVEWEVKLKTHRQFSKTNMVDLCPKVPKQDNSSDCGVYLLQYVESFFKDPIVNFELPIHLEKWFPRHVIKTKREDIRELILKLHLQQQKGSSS

[14] = target: T4, Sentrin-specific protease 6 (Homo sapiens, UniProt Q9GZR1); type: functional;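 also: Luminescence-based dose-response confirmatory assay of SENP6 inhibition, following up an ultra-high-throughput screen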
T4 sequence (Q9GZR1 whole entry): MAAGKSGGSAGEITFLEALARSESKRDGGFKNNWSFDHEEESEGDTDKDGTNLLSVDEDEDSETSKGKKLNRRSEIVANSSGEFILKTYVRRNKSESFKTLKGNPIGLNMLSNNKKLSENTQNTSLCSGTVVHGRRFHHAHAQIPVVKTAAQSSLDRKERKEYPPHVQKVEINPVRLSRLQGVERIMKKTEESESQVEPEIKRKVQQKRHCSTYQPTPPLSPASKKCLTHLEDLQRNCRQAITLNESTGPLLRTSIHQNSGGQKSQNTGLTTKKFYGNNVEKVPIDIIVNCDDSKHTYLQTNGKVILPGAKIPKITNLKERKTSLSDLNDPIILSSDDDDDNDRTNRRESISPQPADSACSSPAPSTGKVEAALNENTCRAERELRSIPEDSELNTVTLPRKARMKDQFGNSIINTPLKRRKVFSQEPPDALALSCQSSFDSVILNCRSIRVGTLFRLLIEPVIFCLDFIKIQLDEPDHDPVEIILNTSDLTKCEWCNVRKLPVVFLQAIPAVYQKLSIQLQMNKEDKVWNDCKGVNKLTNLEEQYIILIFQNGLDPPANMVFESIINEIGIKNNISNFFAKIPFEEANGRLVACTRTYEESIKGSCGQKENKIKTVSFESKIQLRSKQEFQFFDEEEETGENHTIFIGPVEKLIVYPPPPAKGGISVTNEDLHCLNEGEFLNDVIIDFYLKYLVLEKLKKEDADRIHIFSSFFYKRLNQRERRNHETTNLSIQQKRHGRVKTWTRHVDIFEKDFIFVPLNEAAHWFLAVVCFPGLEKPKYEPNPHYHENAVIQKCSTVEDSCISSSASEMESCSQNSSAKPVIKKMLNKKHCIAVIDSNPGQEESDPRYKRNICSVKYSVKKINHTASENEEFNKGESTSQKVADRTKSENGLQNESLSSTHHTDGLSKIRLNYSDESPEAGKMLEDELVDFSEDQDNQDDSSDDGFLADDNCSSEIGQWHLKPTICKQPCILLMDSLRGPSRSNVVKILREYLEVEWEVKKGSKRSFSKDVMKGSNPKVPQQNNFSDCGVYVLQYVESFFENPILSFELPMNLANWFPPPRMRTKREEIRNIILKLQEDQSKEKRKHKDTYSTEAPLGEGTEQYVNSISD

[15] = target: T5, Sentrin-specific protease 8 (Homo sapiens, UniProt Q96LD8); type: functional;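 also: luminescence read-out of SENP8 inhibition, dose-response confirmation following an ultra-high-throughput screen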
T5 sequence (Q96LD8 whole entry): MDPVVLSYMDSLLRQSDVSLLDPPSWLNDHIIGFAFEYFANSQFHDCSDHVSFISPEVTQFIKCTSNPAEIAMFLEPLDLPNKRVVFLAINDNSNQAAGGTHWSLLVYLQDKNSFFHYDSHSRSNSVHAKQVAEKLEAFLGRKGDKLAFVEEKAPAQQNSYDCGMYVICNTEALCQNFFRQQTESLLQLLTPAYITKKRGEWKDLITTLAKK

[16] = target: Paired box protein Pax-8 (Homo sapiens, UniProt Q06710); test: PAX8 transcriptional activity inhibition in RMG-I – RMG-I cells, luciferase, cherry-pick, dose response (AID 687027); type: functional, cell-based;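 also: luciferase reporter driven by Pax8 target thyroperoxidase promoter measured by SteadyGlo luminescence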
Paired box protein Pax-8, sequence (Q06710 whole entry): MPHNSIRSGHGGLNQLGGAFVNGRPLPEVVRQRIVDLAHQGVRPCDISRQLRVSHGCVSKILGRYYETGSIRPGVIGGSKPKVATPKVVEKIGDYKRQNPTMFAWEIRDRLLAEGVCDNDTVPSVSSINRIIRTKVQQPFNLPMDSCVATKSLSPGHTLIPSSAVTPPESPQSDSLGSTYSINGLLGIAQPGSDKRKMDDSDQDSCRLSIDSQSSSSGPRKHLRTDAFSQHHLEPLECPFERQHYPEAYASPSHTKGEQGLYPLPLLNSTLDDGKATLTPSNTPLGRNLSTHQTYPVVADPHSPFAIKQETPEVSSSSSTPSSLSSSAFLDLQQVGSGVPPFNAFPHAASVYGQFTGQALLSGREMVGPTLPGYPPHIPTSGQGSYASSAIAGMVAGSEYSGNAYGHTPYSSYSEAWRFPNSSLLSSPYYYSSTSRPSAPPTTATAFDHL

[17] = system: Streptococcus sp. 'group A'; test: Streptococcus pyogenes SK(-)GAS viability under kanamycin – luminescence, BacTiterGlo, confirmation, counter-screen for streptokinase expression inhibitor project, dose response (AID 1900); type: functional, organism-based
[18] = target: T6, Streptokinase A (Streptococcus pyogenes serotype M1, UniProt P10520); test: viability-normalized secreted streptokinase activity reduction – plasminogen activation absorbance, OD405, dose response (AID 1914); type: functional, Streptococcus pyogenes M1 GAS;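 also: secreted streptokinase activity via plasminogen activation per viability signal from cell pellet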
T6 sequence (P10520 whole entry): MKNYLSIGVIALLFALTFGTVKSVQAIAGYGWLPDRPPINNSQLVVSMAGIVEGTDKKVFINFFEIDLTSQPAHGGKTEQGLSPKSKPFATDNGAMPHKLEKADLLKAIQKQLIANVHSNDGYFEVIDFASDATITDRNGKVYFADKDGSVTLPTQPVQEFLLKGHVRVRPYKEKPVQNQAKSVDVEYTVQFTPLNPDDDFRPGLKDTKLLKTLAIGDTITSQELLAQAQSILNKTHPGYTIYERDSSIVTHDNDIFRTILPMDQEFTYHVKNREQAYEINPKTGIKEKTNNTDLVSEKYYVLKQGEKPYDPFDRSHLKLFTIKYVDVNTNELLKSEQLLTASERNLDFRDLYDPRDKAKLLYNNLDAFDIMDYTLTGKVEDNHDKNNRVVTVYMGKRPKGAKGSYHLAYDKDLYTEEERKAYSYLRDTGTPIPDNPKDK

[19] = system: Streptococcus; test: GAS UMAA2166 growth inhibition – luminescence, BacTiterGlo, counter-screen for streptokinase expression inhibitor project, dose response (AID 1915); type: functional, organism-based;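 also: potency for reduction of bacterial viability or growth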

For `CC(C)N1C[C@@H](CN(C)Cc2ccc(Cl)cc2)Oc2c(NC(=O)c3ccncc3)cc(F)cc2C1=O`, the AC50 [1] was 0.00326 µM (active).

For `COc1cc(-c2ncc3ccccn23)cc(OC)c1OC`, the CC50 [2] was 100 µM (active) and the IC50 [3] was 123 µM (active).

For `CN(C[C@H](Cc1ccccc1)N(C[C@H](Cc1ccccc1)N(CC1(c2ccccc2)CC1)N=O)N=O)N=O`, the AC50 [4] was 2.98 µM (active), the AC50 [5] was 3.53 µM (active) and the AC50 [6] was 3.05 µM (active). The AC50 [7] was 7.28 µM (active).

In the case of `COc1ccc2nc(/C=N/NC(=O)[C@H](C)NC(=O)OC(C)(C)C)ccc2c1`, the IC50 [8] is reported as 31.9 µM (active).

For `COc1ccc(S(=O)(=O)N(C)C[C@H]2OCCCC[C@H](C)Oc3ccc(N(C)C)cc3C(=O)N([C@H](C)CO)C[C@@H]2C)cc1`, the AC50 [1] was 9.32 µM (active).

With `COc1cc(C(C[N+](=O)[O-])c2c(N)n(C)c(=O)n(C)c2=O)ccc1O` (stereo not drawn) the CC50 [2] was 80.4 µM (active) and the IC50 [3] was 111 µM (active).

With `Cc1cccc(C(=N)NOC(=O)N2c3ccccc3Sc3ccccc32)c1` the EC50 [9] was > 120 µM (not active), the EC50 [10] was > 120 µM (not active) and the EC50 [11] was > 120 µM (not active). For the same compound, the CC50 [2] was 92.6 µM (active).

With `COc1ccc(NC(=O)Nc2ccc3c(c2)N(C)C(=O)CS3)cc1Cl` the AC50 [4] was 31.1 µM (active), the AC50 [5] was 3.37 µM (active) and the AC50 [6] was > 70 µM (inactive). For the same compound, the AC50 [7] was 11.8 µM (active).

With `Cc1ccccc1-c1nc2sc3c(c2c(=O)o1)CCC3` the IC50 [12] was 1.73 µM (active), the IC50 [13] was 2.23 µM (active) and the IC50 [14] was 3.42 µM (active). The IC50 [15] was > 100 µM (inactive).

With `Cc1ccc2c(c1)c1c3n2CCN(CC(N)=O)C3CCC1` (stereo not drawn) the AC50 [16] was 6.82 µM (active) and the AC50 [6] was 7.87 µM (active).

With `CN(C)CC#Cc1cccc(-c2nc(C(=O)N3CCN(Cc4ccccc4)CC3)cc3c2[C@H](CCO)N([S+]([O-])C(C)(C)C)C3)c1` (stereo partly drawn) the AC50 [1] was 6.1 µM (active).

In the case of `Cc1ccccc1CN(C)C[C@H]1Oc2c(NC(=O)c3ccncc3)cccc2C(=O)N([C@@H](C)CO)C[C@@H]1C`, the AC50 [1] is reported as 0.0559 µM (active).

In the case of `Cc1ccccc1S(=O)(=O)N1C[C@H]2[C@H]3C(=O)N(C4CCCCC4)C(=O)[C@H]3CC(=O)[C@H]2[C@@H]1c1ccc(Cl)cc1`, the AC50 [4] is reported as 0.396 µM (active), the AC50 [5] is reported as 0.874 µM (active) and the AC50 [6] is reported as 1.2 µM (active). For the same compound, the AC50 [7] was 2.81 µM (active).

For `CCn1c(SCc2ccccc2Cl)nc2ccccc21`, the EC50 [17] was 16.5 µM (active), the EC50 [18] was 21.4 µM (active) and the EC50 [19] was > 150 µM (not active). The IC50 [12] was 40.6 µM (active), the IC50 [13] was 11.3 µM (active) and the IC50 [14] was 17.5 µM (active). For the same compound, the IC50 [15] was 29.3 µM (active).
